US12281122B1, “PI3K inhibitors” (Cogent Biosciences, Inc., priority 2023, dated 2025)

How the values were obtained:
[1] = test system: T47D (PI3Kα-H1047R) cell line; assay: HTRF phospho-AKT(S473) cell assay in T47D cells; type: cell-based, human; details: Homo sapiens; T47D (PI3Kα-H1047R) cells, HTRF phospho-AKT(S473), 2 hours compound incubation
In short: (§1)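 Cells plated overnight (T47D in RPMI/10% FBS/0.2 units/mL insulin; SKBR3 in McCoy's 5A/10% FBS), then given 12-point 1:3 compound series (top 5 μM T47D, 10 μM SKBR3; ≤0.5% DMSO) for 2 h at 37° C. SKBR3 stimulated with 70 ng/ml PDGF-BB for final 15 min. Lysate pAKT(S473) by HTRF; IC50 calculated.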

[2] = test system: SKBR3 (PI3Kα-Wild Type) cell line; assay: HTRF phospho-AKT(S473) cell assay in SKBR3 cells; type: cell-based, human; details: Homo sapiens, SK-BR-3; SKBR3 (PI3Kα-Wild Type) cells, HTRF phospho-AKT(S473), 2 hours compound incubation, PDGF-BB stimulated
In short: as §1

[3] = biological target: PI3Kα H1047R (Homo sapiens, UniProt P42336, H1047R); assay: PI3Kα H1047R enzyme assay (Transcreener ADP2 TR-FRET Red Assay); type: biochemical; details: purified recombinant full-length protein; 2 hours pre-incubation with compound
PI3Kα H1047R, sequence (P42336 whole entry H1047R): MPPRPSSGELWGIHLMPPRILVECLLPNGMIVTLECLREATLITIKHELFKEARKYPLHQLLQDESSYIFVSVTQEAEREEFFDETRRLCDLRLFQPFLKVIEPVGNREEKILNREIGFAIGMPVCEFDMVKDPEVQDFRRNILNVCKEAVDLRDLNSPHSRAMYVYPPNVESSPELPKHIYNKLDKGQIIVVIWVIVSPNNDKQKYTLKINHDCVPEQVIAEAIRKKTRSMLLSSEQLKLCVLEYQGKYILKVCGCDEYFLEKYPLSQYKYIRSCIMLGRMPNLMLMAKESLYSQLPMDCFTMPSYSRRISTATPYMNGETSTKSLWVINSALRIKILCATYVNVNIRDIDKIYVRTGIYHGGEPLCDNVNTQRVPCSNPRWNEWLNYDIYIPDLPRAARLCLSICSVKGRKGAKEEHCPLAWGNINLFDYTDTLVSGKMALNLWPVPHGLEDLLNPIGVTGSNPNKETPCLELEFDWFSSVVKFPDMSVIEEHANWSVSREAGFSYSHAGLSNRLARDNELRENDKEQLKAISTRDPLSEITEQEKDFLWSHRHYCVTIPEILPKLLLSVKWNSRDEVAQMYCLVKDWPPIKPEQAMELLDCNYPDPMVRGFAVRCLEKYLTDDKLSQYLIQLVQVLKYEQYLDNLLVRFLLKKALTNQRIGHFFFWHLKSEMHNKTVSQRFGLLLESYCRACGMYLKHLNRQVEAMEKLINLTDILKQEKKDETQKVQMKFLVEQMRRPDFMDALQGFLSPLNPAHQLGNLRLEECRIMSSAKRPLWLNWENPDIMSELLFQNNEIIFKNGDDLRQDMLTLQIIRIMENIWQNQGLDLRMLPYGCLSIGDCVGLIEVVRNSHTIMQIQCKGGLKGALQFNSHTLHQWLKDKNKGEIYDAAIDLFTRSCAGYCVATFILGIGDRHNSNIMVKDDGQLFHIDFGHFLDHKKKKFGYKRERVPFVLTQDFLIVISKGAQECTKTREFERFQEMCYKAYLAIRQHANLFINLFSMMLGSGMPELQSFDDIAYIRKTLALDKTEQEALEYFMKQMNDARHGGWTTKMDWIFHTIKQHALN
PI3Kα H1047R, sequence (P27986 2-724 partner): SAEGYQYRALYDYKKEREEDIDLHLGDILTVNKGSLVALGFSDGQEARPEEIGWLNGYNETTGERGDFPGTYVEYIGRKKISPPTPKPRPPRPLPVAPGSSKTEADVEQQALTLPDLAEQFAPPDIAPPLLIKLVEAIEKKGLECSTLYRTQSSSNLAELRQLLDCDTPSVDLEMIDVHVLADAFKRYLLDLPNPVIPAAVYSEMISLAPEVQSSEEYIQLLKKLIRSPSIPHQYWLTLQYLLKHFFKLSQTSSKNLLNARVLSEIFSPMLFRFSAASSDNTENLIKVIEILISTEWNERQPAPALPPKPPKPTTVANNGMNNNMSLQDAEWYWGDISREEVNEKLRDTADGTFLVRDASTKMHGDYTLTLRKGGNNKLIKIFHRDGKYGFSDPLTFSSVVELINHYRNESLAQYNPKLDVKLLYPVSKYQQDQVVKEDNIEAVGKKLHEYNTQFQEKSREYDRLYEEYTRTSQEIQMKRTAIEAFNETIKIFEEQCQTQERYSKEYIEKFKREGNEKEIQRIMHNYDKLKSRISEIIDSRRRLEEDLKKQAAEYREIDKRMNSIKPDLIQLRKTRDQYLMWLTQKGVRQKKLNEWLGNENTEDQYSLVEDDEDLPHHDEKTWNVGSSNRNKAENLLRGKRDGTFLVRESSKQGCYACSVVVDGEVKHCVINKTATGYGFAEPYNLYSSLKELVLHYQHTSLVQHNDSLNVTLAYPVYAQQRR
In short: (§2)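 Purified recombinant full-length enzymes pre-incubated 2 h at room temperature with compounds (11-point 1:3 dilutions, typically 50,000–0.85 nM), then started with ATP/PI(4,5)P2 diC8 and run 60 min at room temperature in 40 mM HEPES pH 7.5, 20 mM NaCl, 25 mM MgCl2, 0.01% Triton X-100. ADP detected by TR-FRET 665/615 ratio; IC50 from four-parameter fit of percent of control.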

[4] = biological target: PI3Kα (Homo sapiens, UniProt P42336); assay: PI3Kα enzyme assay (Transcreener ADP2 TR-FRET Red Assay); type: biochemical; details: purified recombinant full-length protein; 2 hours pre-incubation with compound; read-out: PI3Kα WT IC50
PI3Kα, sequence (P42336 whole entry): as the sequence (P42336 whole entry H1047R) above, with R1047H counted along it
PI3Kα, sequence (P27986 2-724 partner): as the sequence (P27986 2-724 partner) above
In short: as §2

SMILES	IC50 [1] [µM]	IC50 [2] [µM]	IC50 [3] [µM]	IC50 [4] [µM]
Cc1cc([C@@H](C)Nc2ccc[nH]c2=O)c2nc(N3Cc4ccc(F)cc4C3)n(C)c(=O)c2c1 [Compound 94, (R)-2-(5-fluoroisoindolin-2-yl)-3,6-dimethyl-8-(1-((2-oxo-1,2-dihydropyridin-3-yl)amino)ethyl)quinazolin-4(3H)-one]	1 to 5	≥ 5	≥ 1	≥ 1
Cc1cc([C@@H](C)Nc2ccc(Cl)nc2S(N)(=O)=O)c2nc(N3Cc4ccc(F)cc4C3)n(C)c(=O)c2c1 [Compound 76, (R)-6-chloro-3-((1-(2-(5-fluoroisoindolin-2-yl)-3,6-dimethyl-4-oxo-3,4-dihydroquinazolin-8-yl)ethyl)amino)pyridine-2-sulfonamide]	0.25 to 0.5	1 to 5	< 0.1	≥ 1
Cc1cc([C@@H](C)Nc2ccc(Cl)nc2S(=O)(=O)NC(=O)N(C)C)c2nc(N3Cc4ccc(F)cc4C3)n(C)c(=O)c2c1 [Compound 71, (R)-6-chloro-N-(dimethylcarb-amoyl)-3-((1-(2-(5-fluoroisoindolin-2-yl)-3,6-dimethyl-4-oxo-3,4-dihydroquinazolin-8-yl)ethyl)amino)pyridine-2-sulfonamide]	1 to 5	≥ 5	≥ 1	≥ 1
Cc1cc([C@H](C)Nc2ccccc2S(N)(=O)=O)c2nc(N3Cc4ccc(F)cc4C3)n(C)c(=O)c2c1 (single isomer, unassigned) [Compound 105, 2-((1-(2-(5-fluoroisoindolin-2-yl)-3,6-dimethyl-4-oxo-3,4-dihydroquinazolin-8-yl)ethyl)amino) benzenesulfonamide]	1 to 5	≥ 5	≥ 1	≥ 1
Cc1cc([C@@H](C)Nc2cn(C)nc2C(=O)NS(C)(=O)=O)c2nc(N3Cc4ccc(F)cc4C3)n(C)c(=O)c2c1 (single isomer, unassigned) [Compound 106, 4-((1-(2-(5-fluoroisoindolin-2-yl)-3,6-dimethyl-4-oxo-3,4-dihydroquinazolin-8-yl)ethyl)amino)-1-methyl-N-(methylsulfonyl)-1H-pyrazole-3-carboxamide]	1 to 5	≥ 5	≥ 1	≥ 1
Cc1cc([C@@H](C)Nc2ccc(Cl)nc2C(=O)NS(C)(=O)=O)c2nc(N(C)C)n(C)c(=O)c2c1 [Compound 40, (R)-6-chloro-3-((1-(2-(dimethylamino)-3,6-dimethyl-4-oxo-3,4-dihydroquinazolin-8-yl)ethyl)amino)-N-(methylsulfonyl) picolinamide]	0.25 to 0.5	1 to 5	≥ 1	≥ 1
CC(=O)NS(=O)(=O)c1nc(Cl)ccc1N[C@H](C)c1cc(C)cc2c(=O)n(C)c(N3CCC(F)(F)CC3)nc12 [Compound 78, (R)-N-((6-chloro-3-((1-(2-(4,4-difluoropiperidin-1-yl)-3,6-dimethyl-4-oxo-3,4-dihydroquinazolin-8-yl)ethyl)amino)pyridin-2-yl)sulfonyl)acetamide]	0.25 to 0.5	1 to 5	0.5 to 1	≥ 1
Cc1cc([C@@H](C)Nc2ccc(Cl)nc2C(=O)NS(C)(=O)=O)c2nc(-c3ccc(F)cn3)n(C)c(=O)c2c1 [Compound 88, (R)-6-chloro-3-((1-(2-(5-fluoropyridin-2-yl)-3,6-dimethyl-4-oxo-3,4-dihydroquinazolin-8-yl)ethyl)amino)-N-(methylsulfonyl) picolinamide]	0.25 to 0.5	1 to 5	≥ 1	≥ 1
Cc1cc([C@@H](C)Nc2ccc(Cl)nc2C(=O)NS(C)(=O)=O)c2nc(N3CCCC3)n(C)c(=O)c2c1 [Compound 16]	0.25 to 0.5	1 to 5	0.25 to 0.5	≥ 1
Cc1cc([C@@H](C)Nc2ccc(Cl)nc2C(=O)NS(C)(=O)=O)c2nc(NCC(F)(F)F)n(C)c(=O)c2c1 [Compound 34, (R)-6-chloro-3-((1-(3,6-dimethyl-4-oxo-2-((2,2,2-trifluoroethyl)amino)-3,4-dihydroquinazolin-8-yl)ethyl)amino)-N-(methylsulfonyl) picolinamide]	0.25 to 0.5	1 to 5	0.5 to 1	≥ 1
CC(=O)NS(=O)(=O)c1nc(Cl)ccc1N[C@H](C)c1cc(F)cc2c(=O)n(C)c(N3CCC(F)(F)CC3)nc12 [Compound 77, (R)-N-((6-chloro-3-((1-(2-(4,4-difluoropiperidin-1-yl)-6-fluoro-3-methyl-4-oxo-3,4-dihydroquinazolin-8-yl)ethyl)amino)pyridin-2-yl)sulfonyl)acetamide]	1 to 5	≥ 5	≥ 1	≥ 1
C[C@@H](Nc1ccc(Cl)nc1C(=O)NS(C)(=O)=O)c1cc(F)cc2c(=O)n(C)c(-c3cccc(F)c3F)nc12 [Compound 87, (R)-6-chloro-3-((1-(2-(2,3-difluorophenyl)-6-fluoro-3-methyl-4-oxo-3,4-dihydroquinazolin-8-yl)ethyl)amino)-N-(methylsulfonyl) picolinamide]	1 to 5	≥ 5	≥ 1	≥ 1

Next, values leading:

IC50 [1] [µM]	IC50 [2] [µM]	IC50 [3] [µM]	IC50 [4] [µM]	SMILES
0.25 to 0.5	1 to 5	≥ 1	≥ 1	Cc1cc([C@@H](C)Nc2ccc(Cl)nc2C(=O)NS(C)(=O)=O)c2nc(OCc3cccnc3)n(C)c(=O)c2c1 [Compound 56, (R)-6-chloro-3-((1-(3,6-dimethyl-4-oxo-2-(pyridin-3-ylmethoxy)-3,4-dihydroquinazolin-8-yl)ethyl)amino)-N-(methylsulfonyl) picolinamide]
0.25 to 0.5	≥ 5	0.25 to 0.5	≥ 1	Cc1cc([C@@H](C)Nc2ccc(Cl)nc2C(=O)NS(C)(=O)=O)c2nc(NC3CCCC3)n(C)c(=O)c2c1 [Compound 11, (R)-6-chloro-3-((1-(2-(cyclopentylamino)-3,6-dimethyl-4-oxo-3,4-dihydroquinazolin-8-yl)ethyl)amino)-N-(methylsulfonyl) picolinamide]
< 0.25	1 to 5	0.1 to 0.25	0.5 to 1	Cc1cc([C@@H](C)Nc2ccc(Cl)nc2C(=O)NS(C)(=O)=O)c2nc(-c3cnc(C)s3)n(C)c(=O)c2c1 [Compound 89, (R)-6-chloro-3-((1-(3,6-dimethyl-2-(2-methylthiazol-5-yl)-4-oxo-3,4-dihydroquinazolin-8-yl)ethyl)amino)-N-(methylsulfonyl) picolinamide]
< 0.25	0.5 to 1	< 0.1	≥ 1	Cc1cc([C@@H](C)Nc2ccc(Cl)nc2C(=O)NS(C)(=O)=O)c2nc(OCC3CC3)n(C)c(=O)c2c1 [Compound 51, (R)-6-chloro-3-((1-(2-(cyclopropylmethoxy)-3,6-dimethyl-4-oxo-3,4-dihydroquinazolin-8-yl)ethyl)amino)-N-(methylsulfonyl) picolinamide]
< 0.25	1 to 5	0.1 to 0.25	≥ 1	Cc1cc([C@@H](C)Nc2ccc(Cl)nc2C(=O)NS(C)(=O)=O)c2nc(N(C)Cc3cnn(C)c3)n(C)c(=O)c2c1 [Compound 48, (R)-6-chloro-3-((1-(3,6-dimethyl-2-(methyl((1-methyl-1H-pyrazol-4-yl)methyl)amino)-4-oxo-3,4-dihydroquinazolin-8-yl)ethyl)amino)-N-(methylsulfonyl) picolinamide]
< 0.25	1 to 5	0.1 to 0.25	≥ 1	CCn1cc2c(n1)CN(c1nc3c([C@@H](C)Nc4ccc(Cl)nc4C(=O)NS(C)(=O)=O)cc(C)cc3c(=O)n1C)C2 [Compound 44, (R)-6-chloro-3-((1-(2-(2-ethyl-2,6-dihydropyrrolo[3,4-c]pyrazol-5(4H)-yl)-3,6-dimethyl-4-oxo-3,4-dihydroquinazolin-8-yl)ethyl)amino)-N-(methylsulfonyl) picolinamide]
< 0.25	≥ 5	< 0.1	≥ 1	C[C@@H](Nc1ccc(Cl)[nH]c1=O)c1cc(F)cc2c(=O)n(C)c(N3Cc4cnn(C)c4C3)nc12 [Compound 100, (R)-8-(1-((6-chloro-2-oxo-1,2-dihydropyridin-3-yl)amino)ethyl)-6-fluoro-3-methyl-2-(1-methyl-4,6-dihydropyrrolo[3,4-c]pyrazol-5(1H)-yl)quinazolin-4(3H)-one]
< 0.25	1 to 5	0.5 to 1	≥ 1	Cc1cc([C@@H](C)Nc2ccc(Cl)nc2C(=O)NS(C)(=O)=O)c2nc(N3CCOC[C@H]3C)n(C)c(=O)c2c1 [Compound 55, 6-chloro-3-(((R)-1-(3,6-dimethyl-2-((R)-3-methylmorpholino)-4-oxo-3,4-dihydroquinazolin-8-yl)ethyl)amino)-N-(methylsulfonyl) picolinamide]
